Measured values as given in the NIST ThermoML archive (doi:10.1016/j.tca.2015.06.017).

Test: xn = mol fraction of the nth substance listed
Details: Liquid, Vibrating tube method

CC(C)CCl [1-chloro-2-methylpropane] + CCCCCCC
mass density [kg/m3]
Details	303.15 K	313.15 K	323.15 K
100 kPa, x2 = 0.0531	851.74	840.36	828.79
100 kPa, x2 = 0.1023	839.04	827.85	816.48
100 kPa, x2 = 0.2009	815.06	804.22	793.26
100 kPa, x2 = 0.3009	792.69	782.2	771.57
100 kPa, x2 = 0.3981	772.58	762.38	752.04
100 kPa, x2 = 0.4986	753.31	743.42	733.39
100 kPa, x2 = 0.5998	735.29	725.7	715.95
100 kPa, x2 = 0.7038	718.11	708.77	699.34
100 kPa, x2 = 0.7993	703.45	694.32	685.15
100 kPa, x2 = 0.8995	689.05	680.21	671.24
100 kPa, x2 = 0.9507	682.07	673.34	664.49
2000 kPa, x2 = 0.0531	853.98	842.7	831.42
2000 kPa, x2 = 0.1023	841.31	830.21	819.08
2000 kPa, x2 = 0.2009	817.39	806.67	795.85
2000 kPa, x2 = 0.3009	794.98	784.62	774.11
2000 kPa, x2 = 0.3981	774.81	764.76	754.54
2000 kPa, x2 = 0.4986	755.48	745.75	735.78
2000 kPa, x2 = 0.5998	737.44	727.98	718.28
2000 kPa, x2 = 0.7038	720.22	711.05	701.64
2000 kPa, x2 = 0.7993	705.49	696.57	687.35
2000 kPa, x2 = 0.8995	691.14	682.44	673.46
2000 kPa, x2 = 0.9507	684.19	675.59	666.75
5000 kPa, x2 = 0.0531	857.38	846.39	835.4
5000 kPa, x2 = 0.1023	844.68	833.87	823.02
5000 kPa, x2 = 0.2009	820.73	810.25	799.77
5000 kPa, x2 = 0.3009	798.27	788.13	777.97
5000 kPa, x2 = 0.3981	778.06	768.2	758.35
5000 kPa, x2 = 0.4986	758.67	749.13	739.53
5000 kPa, x2 = 0.5998	740.59	731.29	721.98
5000 kPa, x2 = 0.7038	723.33	714.28	705.28
5000 kPa, x2 = 0.7993	708.59	699.76	690.97
5000 kPa, x2 = 0.8995	694.18	685.54	677.02
5000 kPa, x2 = 0.9507	687.22	678.7	670.29
7000 kPa, x2 = 0.0531	859.64	848.82	838.13
7000 kPa, x2 = 0.1023	846.92	836.28	825.7
7000 kPa, x2 = 0.2009	822.92	812.64	802.4
7000 kPa, x2 = 0.3009	800.42	790.49	780.57
7000 kPa, x2 = 0.3981	780.18	770.54	760.9
7000 kPa, x2 = 0.4986	760.74	751.42	742.03
7000 kPa, x2 = 0.5998	742.6	733.56	724.42
7000 kPa, x2 = 0.7038	725.32	716.53	707.68
7000 kPa, x2 = 0.7993	710.55	701.96	693.36
7000 kPa, x2 = 0.8995	696.12	687.72	679.35
7000 kPa, x2 = 0.9507	689.13	680.86	672.58
10000 kPa, x2 = 0.0531	862.96	852.24	841.75
10000 kPa, x2 = 0.1023	850.21	839.68	829.31
10000 kPa, x2 = 0.2009	826.15	815.97	805.94
10000 kPa, x2 = 0.3009	803.62	793.76	784.05
10000 kPa, x2 = 0.3981	783.33	773.76	764.32
10000 kPa, x2 = 0.4986	763.84	754.58	745.38
10000 kPa, x2 = 0.5998	745.64	736.65	727.75
10000 kPa, x2 = 0.7038	728.31	719.62	710.93
10000 kPa, x2 = 0.7993	713.5	705.01	696.57
10000 kPa, x2 = 0.8995	699.03	690.72	682.48
10000 kPa, x2 = 0.9507	692.03	683.8	675.7
20000 kPa, x2 = 0.0531	873	863.01	853.08
20000 kPa, x2 = 0.1023	860.17	850.29	840.6
20000 kPa, x2 = 0.2009	835.94	826.35	817.1
20000 kPa, x2 = 0.3009	813.23	804.06	794.98
20000 kPa, x2 = 0.3981	792.77	783.83	775.23
20000 kPa, x2 = 0.4986	773.13	764.52	755.93
20000 kPa, x2 = 0.5998	754.8	746.45	738.09
20000 kPa, x2 = 0.7038	737.29	729.18	721.08
20000 kPa, x2 = 0.7993	722.32	714.39	706.61
20000 kPa, x2 = 0.8995	707.71	699.99	692.36
20000 kPa, x2 = 0.9507	700.65	692.96	685.54
30000 kPa, x2 = 0.0531	882.09	872.66	863.29
30000 kPa, x2 = 0.1023	869.13	859.97	850.64
30000 kPa, x2 = 0.2009	844.8	835.81	826.96
30000 kPa, x2 = 0.3009	821.91	813.29	804.68
30000 kPa, x2 = 0.3981	801.3	792.99	784.58
30000 kPa, x2 = 0.4986	781.52	773.45	765.27
30000 kPa, x2 = 0.5998	763.03	755.17	747.25
30000 kPa, x2 = 0.7038	745.43	737.72	730.1
30000 kPa, x2 = 0.7993	730.33	722.79	715.4
30000 kPa, x2 = 0.8995	715.6	708.23	700.96
30000 kPa, x2 = 0.9507	708.5	701.14	694.07
40000 kPa, x2 = 0.0531	890.44	881.46	872.52
40000 kPa, x2 = 0.1023	877.39	868.66	859.81
40000 kPa, x2 = 0.2009	852.91	844.37	835.84
40000 kPa, x2 = 0.3009	829.87	821.69	813.46
40000 kPa, x2 = 0.3981	809.15	801.27	793.25
40000 kPa, x2 = 0.4986	789.24	781.56	773.87
40000 kPa, x2 = 0.5998	770.61	763.14	755.68
40000 kPa, x2 = 0.7038	752.83	745.56	738.29
40000 kPa, x2 = 0.7993	737.59	730.5	723.4
40000 kPa, x2 = 0.8995	722.73	715.76	708.85
40000 kPa, x2 = 0.9507	715.55	708.64	701.87
50000 kPa, x2 = 0.0531	898.25	889.63	881.03
50000 kPa, x2 = 0.1023	885.12	876.7	868.25
50000 kPa, x2 = 0.2009	860.41	852.23	844.11
50000 kPa, x2 = 0.3009	837.32	829.5	821.56
50000 kPa, x2 = 0.3981	816.52	808.88	801.14
50000 kPa, x2 = 0.4986	796.41	789.11	781.63
50000 kPa, x2 = 0.5998	777.65	770.57	763.29
50000 kPa, x2 = 0.7038	759.78	752.8	745.73
50000 kPa, x2 = 0.7993	744.45	737.67	730.8
50000 kPa, x2 = 0.8995	729.47	722.82	716.06
50000 kPa, x2 = 0.9507	722.23	715.59	709.05
60000 kPa, x2 = 0.0531	905.4	897.18	888.87
60000 kPa, x2 = 0.1023	892.33	884.27	876.05
60000 kPa, x2 = 0.2009	867.48	859.72	851.78
60000 kPa, x2 = 0.3009	844.24	836.81	829.15
60000 kPa, x2 = 0.3981	823.28	815.99	808.64
60000 kPa, x2 = 0.4986	803.13	796.1	788.91
60000 kPa, x2 = 0.5998	784.27	777.45	770.47
60000 kPa, x2 = 0.7038	766.25	759.57	752.78
60000 kPa, x2 = 0.7993	750.88	744.29	737.68
60000 kPa, x2 = 0.8995	735.73	729.33	722.83
60000 kPa, x2 = 0.9507	728.44	722.04	715.76
65000 kPa, x2 = 0.0531	908.87	900.74	892.62
65000 kPa, x2 = 0.1023	895.79	887.8	879.77
65000 kPa, x2 = 0.2009	870.84	863.12	855.45
65000 kPa, x2 = 0.3009	847.58	840.18	832.75
65000 kPa, x2 = 0.3981	826.58	819.3	812.18
65000 kPa, x2 = 0.4986	806.34	799.37	792.37
65000 kPa, x2 = 0.5998	787.42	780.62	773.88
65000 kPa, x2 = 0.7038	769.32	762.72	756.14
65000 kPa, x2 = 0.7993	753.84	747.34	741.15
65000 kPa, x2 = 0.8995	738.7	732.38	726.04
65000 kPa, x2 = 0.9507	731.35	725.02	718.95
